Common to all, as to test: cell-based
One assay deals with hNav1.7 (Homo sapiens, UniProt Q15858). The class given is cell-based. The note with it: IonWorks Quattro, use-dependent block, hNav1.7; read-out: IWQ Use Nav1.7.
The target in another assay is hNav1.5 (Homo sapiens, UniProt Q14524). The note with it: IonWorks Quattro, use-dependent block, hNav1.5; read-out: IWQ Use Nav1.5. (In general: In patch-clamp work, channel activity is measured electrically.)
For another assay, the target named is hNav1.3 (Homo sapiens, UniProt Q9NY46). The note with it: IonWorks Quattro, use-dependent block, hNav1.3; read-out: IWQ Use Nav1.3.

Among the data in patent publication US9340590B2 (priority 2011, dated 2016) are IC50 values, retold here.

Positions of bridges follow the written chain, without caps; N, C: chain ends. Non-standard residues stand in square brackets, D forms with d. Residues, ends and D or L forms follow the SMILES beside them. Groups on a side chain read outwards from the residue. Lys(Me) = CNCCCC[C@H](N)C(=O)O; Pra = C#CC[C@H](N)C(=O)O

hNav1.7, sequence (Q15858 whole entry, looked up): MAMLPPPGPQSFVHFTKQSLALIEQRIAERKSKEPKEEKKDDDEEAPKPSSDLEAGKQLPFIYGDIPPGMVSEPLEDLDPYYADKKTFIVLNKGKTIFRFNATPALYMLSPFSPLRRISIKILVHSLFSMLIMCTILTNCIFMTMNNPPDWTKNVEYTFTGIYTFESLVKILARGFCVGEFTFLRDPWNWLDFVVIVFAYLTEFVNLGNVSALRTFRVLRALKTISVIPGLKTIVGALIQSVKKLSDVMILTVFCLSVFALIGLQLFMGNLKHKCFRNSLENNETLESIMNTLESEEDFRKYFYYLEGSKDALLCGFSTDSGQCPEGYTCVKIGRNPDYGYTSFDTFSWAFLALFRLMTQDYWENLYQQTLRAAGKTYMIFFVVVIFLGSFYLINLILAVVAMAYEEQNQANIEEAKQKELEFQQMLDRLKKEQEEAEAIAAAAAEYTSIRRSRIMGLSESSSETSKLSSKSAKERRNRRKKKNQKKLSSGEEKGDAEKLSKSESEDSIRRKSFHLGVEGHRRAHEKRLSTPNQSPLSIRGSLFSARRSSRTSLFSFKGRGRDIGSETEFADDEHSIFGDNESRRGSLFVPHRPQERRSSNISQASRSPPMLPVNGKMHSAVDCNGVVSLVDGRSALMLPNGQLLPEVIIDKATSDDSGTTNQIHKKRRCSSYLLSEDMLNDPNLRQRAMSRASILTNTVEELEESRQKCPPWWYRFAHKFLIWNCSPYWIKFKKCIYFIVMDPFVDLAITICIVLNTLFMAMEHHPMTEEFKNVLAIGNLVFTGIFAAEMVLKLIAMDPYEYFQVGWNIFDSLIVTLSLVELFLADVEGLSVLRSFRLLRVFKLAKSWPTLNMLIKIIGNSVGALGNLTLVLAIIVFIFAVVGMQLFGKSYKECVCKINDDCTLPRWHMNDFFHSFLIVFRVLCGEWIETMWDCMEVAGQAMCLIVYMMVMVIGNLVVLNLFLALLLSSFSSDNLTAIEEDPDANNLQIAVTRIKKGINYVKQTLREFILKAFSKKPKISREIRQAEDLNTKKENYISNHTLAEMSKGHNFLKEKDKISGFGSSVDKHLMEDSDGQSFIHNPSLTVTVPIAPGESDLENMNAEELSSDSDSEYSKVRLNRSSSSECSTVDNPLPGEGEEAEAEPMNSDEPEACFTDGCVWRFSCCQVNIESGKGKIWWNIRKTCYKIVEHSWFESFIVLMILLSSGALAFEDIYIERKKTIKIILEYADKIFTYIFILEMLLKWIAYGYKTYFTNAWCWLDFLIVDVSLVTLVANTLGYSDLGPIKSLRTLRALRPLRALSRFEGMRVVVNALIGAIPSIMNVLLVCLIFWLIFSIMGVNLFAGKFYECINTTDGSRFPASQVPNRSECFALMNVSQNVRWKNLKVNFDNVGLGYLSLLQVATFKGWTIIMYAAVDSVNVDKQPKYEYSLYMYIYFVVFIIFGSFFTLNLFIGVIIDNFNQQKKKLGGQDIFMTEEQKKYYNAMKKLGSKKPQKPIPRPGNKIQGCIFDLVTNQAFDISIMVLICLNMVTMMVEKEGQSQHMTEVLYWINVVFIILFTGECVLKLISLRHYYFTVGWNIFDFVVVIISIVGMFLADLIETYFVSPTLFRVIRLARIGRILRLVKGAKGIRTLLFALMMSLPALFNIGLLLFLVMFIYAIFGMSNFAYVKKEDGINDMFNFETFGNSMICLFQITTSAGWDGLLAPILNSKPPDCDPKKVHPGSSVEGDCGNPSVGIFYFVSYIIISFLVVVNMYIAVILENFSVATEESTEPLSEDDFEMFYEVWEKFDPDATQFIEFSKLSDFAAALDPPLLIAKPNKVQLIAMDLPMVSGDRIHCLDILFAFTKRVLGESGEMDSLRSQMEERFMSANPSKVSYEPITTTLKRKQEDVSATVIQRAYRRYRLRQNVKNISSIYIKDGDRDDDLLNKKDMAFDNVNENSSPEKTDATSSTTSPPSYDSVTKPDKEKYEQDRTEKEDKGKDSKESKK
hNav1.3, sequence (Q9NY46 whole entry, looked up): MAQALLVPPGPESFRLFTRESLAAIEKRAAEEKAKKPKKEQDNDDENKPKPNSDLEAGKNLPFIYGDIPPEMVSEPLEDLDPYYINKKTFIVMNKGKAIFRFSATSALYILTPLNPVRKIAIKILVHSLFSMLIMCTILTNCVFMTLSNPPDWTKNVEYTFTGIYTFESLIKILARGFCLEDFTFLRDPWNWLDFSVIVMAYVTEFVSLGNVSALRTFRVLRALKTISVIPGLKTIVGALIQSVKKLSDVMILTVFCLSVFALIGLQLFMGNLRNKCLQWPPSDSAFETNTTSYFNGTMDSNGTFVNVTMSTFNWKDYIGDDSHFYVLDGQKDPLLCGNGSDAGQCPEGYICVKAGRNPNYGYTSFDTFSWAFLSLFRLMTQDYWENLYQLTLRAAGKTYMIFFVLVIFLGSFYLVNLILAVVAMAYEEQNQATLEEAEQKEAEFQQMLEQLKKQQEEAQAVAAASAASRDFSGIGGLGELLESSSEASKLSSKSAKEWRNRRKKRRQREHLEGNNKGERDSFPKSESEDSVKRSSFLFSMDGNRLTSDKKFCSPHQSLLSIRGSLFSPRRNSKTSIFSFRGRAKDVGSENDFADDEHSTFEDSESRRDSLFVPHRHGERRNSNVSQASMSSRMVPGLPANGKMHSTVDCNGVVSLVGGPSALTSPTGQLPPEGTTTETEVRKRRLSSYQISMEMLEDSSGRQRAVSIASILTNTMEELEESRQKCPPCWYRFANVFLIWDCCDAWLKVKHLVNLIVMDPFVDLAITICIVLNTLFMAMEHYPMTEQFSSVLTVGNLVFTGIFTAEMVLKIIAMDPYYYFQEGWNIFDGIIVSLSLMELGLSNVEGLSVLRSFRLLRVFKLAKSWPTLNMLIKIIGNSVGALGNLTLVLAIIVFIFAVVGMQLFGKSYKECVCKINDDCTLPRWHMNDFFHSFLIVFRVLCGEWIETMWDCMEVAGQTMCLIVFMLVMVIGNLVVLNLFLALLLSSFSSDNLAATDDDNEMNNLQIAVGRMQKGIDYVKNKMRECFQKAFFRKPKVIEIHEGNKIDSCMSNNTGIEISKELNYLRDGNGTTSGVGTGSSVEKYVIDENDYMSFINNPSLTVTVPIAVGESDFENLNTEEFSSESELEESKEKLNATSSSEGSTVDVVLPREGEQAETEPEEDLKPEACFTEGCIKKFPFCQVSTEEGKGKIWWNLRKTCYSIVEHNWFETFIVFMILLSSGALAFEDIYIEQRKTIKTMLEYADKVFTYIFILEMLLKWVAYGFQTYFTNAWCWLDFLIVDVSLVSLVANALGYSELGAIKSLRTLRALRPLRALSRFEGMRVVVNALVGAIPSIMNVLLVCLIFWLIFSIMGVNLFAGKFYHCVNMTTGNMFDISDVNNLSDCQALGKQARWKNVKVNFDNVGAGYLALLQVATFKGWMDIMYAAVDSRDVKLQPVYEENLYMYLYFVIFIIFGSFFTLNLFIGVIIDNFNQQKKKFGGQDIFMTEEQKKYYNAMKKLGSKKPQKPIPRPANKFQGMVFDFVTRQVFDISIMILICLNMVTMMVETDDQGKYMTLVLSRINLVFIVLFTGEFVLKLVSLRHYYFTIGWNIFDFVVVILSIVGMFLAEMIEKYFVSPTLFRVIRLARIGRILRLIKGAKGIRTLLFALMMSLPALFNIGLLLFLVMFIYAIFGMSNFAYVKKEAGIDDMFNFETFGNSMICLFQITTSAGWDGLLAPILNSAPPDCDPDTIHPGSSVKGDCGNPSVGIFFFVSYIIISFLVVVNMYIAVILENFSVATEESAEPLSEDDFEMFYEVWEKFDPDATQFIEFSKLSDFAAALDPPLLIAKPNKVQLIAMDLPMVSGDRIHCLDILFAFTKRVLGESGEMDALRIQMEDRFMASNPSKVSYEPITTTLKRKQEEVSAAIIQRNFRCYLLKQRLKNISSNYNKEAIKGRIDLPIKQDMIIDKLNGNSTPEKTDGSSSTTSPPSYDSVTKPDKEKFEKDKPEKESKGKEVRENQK

As to `CC[C@H](C)[C@@H]1NC(=O)[C@@H]2CSSC[C@@H]3NC(=O)[C@H](C(C)C)NC(=O)[C@H](CC(C)C)NC(=O)[C@H](CC(N)=O)NC(=O)[C@@H]4CCCN4C(=O)[C@H](CCCNC(=N)N)NC(=O)[C@H](CSSC[C@H](NC(=O)[C@@H](N)CC(=O)O)C(=O)N[C@@H](CC(C)C)C(=O)NCC(=O)N[C@@H](C)C(=O)N[C@@H](CCSC)C(=O)N[C@@H](CCCNC(=N)N)C(=O)N[C@@H](CCCCN)C(=O)N2)NC(=O)[C@H](CSSC[C@@H](C(=O)N[C@@H](CCCCN)C(=O)N[C@@H](Cc2ccc(O)cc2)C(=O)N[C@H](C(=O)N[C@@H](Cc2ccccc2)C(N)=O)C(C)C)NC(=O)[C@H](Cc2c[nH]c4ccccc24)NC(=O)[C@H](CCCCNC)NC(=O)[C@H](Cc2c[nH]cn2)NC(=O)[C@H]([C@@H](C)O)NC(=O)[C@H](CCCNC(=N)N)NC(=O)[C@H](CO)NC3=O)NC(=O)[C@H](CCCCN)NC(=O)[C@H](CC(=O)O)NC(=O)[C@H](CC(N)=O)NC(=O)[C@H](CC(=O)O)NC(=O)[C@@H]2CCCN2C1=O` [compound 771] (H-DCLGAMRKCIPDNDKCCRPNLVCSRTH[Lys(Me)]WCKYVF-NH2; disulfide 2-17, 9-23, 16-30), the IC50 on hNav1.7 stood at 1.6 µM; at hNav1.5, 40.1 µM; at hNav1.3 it was 1.8 µM.
Take `CSCC[C@@H]1NC(=O)[C@H]([C@@H](C)O)NC(=O)CNC(=O)[C@H](CC(C)C)NC(=O)[C@@H](NC(=O)[C@@H](N)CC(=O)O)CSSC[C@@H]2NC(=O)[C@@H]3CSSC[C@@H](C(=O)N[C@@H](CCCCN)C(=O)N[C@@H](Cc4ccc(O)cc4)C(=O)N[C@H](C(=O)N[C@@H](Cc4ccccc4)C(N)=O)C(C)C)NC(=O)[C@H](Cc4c[nH]c5ccccc45)NC(=O)[C@H](CCCCN)NC(=O)[C@H](Cc4c[nH]cn4)NC(=O)[C@H]([C@@H](C)O)NC(=O)[C@H](CCCNC(=N)N)NC(=O)[C@H](CO)NC(=O)[C@H](CSSC[C@H](NC(=O)[C@H](CCCCN)NC(=O)[C@H](CCCNC(=N)N)NC1=O)C(=O)N[C@@H](CC(=O)O)C(=O)N1CCC[C@H]1C(=O)N[C@@H](CCC(=O)O)C(=O)N[C@@H](CC(N)=O)C(=O)N[C@@H](CC(=O)O)C(=O)N[C@@H](CCCCN)C(=O)N3)NC(=O)[C@H](C(C)C)NC(=O)[C@H](CC(C)C)NC(=O)[C@H](CC(N)=O)NC(=O)[C@@H]1CCCN1C(=O)[C@H](CCCNC(=N)N)NC2=O` [compound 773] (H-DCLGTMRKCDPENDKCCRPNLVCSRTHKWCKYVF-NH2; disulfide 2-17, 9-23, 16-30): the IC50 on hNav1.7 is 4.5 µM; on hNav1.5, 28.4 µM; on hNav1.3, 3.4 µM.
`CC[C@H](C)[C@@H]1NC(=O)[C@@H]2CSSC[C@@H]3NC(=O)[C@H](C(C)C)NC(=O)[C@H](CC(C)C)NC(=O)[C@H](CC(N)=O)NC(=O)[C@@H]4CCCN4C(=O)[C@H](CCCNC(=N)N)NC(=O)[C@H](CSSC[C@H](NC(=O)[C@@H](N)CC(=O)O)C(=O)N[C@@H](CC(C)C)C(=O)NCC(=O)N[C@@H](C)C(=O)N[C@@H](CCSC)C(=O)N[C@@H](CCCNC(=N)N)C(=O)N[C@@H](CCCCN)C(=O)N2)NC(=O)[C@H](CSSC[C@@H](C(=O)N[C@@H](CCCCN)C(=O)N[C@@H](Cc2ccc(O)cc2)C(=O)N[C@H](C(=O)N[C@@H](Cc2ccccc2)C(N)=O)C(C)C)NC(=O)[C@H](Cc2c[nH]c4ccccc24)NC(=O)[C@H](CCCCN)NC(=O)[C@H](Cc2c[nH]cn2)NC(=O)[C@H](CCC(=O)O)NC(=O)[C@H](CCCNC(=N)N)NC(=O)[C@H](CO)NC3=O)NC(=O)[C@H](CCCCN)NC(=O)[C@H](CC(=O)O)NC(=O)[C@H](CC(N)=O)NC(=O)[C@H](CC(=O)O)NC(=O)[C@@H]2CCCN2C1=O` [compound 787] (H-DCLGAMRKCIPDNDKCCRPNLVCSREHKWCKYVF-NH2; disulfide 2-17, 9-23, 16-30): the IC50 at hNav1.7 was greater than 5 µM; on hNav1.5, 27.3 µM; on hNav1.3, greater than 5 µM.
On to `CC[C@H](C)[C@@H]1NC(=O)[C@@H]2CSSC[C@@H]3NC(=O)[C@H](C(C)C)NC(=O)[C@H](CC(C)C)NC(=O)[C@H](CC(N)=O)NC(=O)[C@@H]4CCCN4C(=O)[C@H](CCCNC(=N)N)NC(=O)[C@H](CSSC[C@H](NC(=O)[C@@H](N)CC(=O)O)C(=O)N[C@@H](CC(C)C)C(=O)NCC(=O)N[C@@H](C)C(=O)N[C@@H](CCSC)C(=O)N[C@@H](CCCNC(=N)N)C(=O)N[C@@H](CCCCN)C(=O)N2)NC(=O)[C@H](CSSC[C@@H](C(=O)N[C@@H](CCCCN)C(=O)N[C@@H](Cc2ccc(O)cc2)C(=O)N[C@H](C(=O)N[C@@H](Cc2ccccc2)C(N)=O)C(C)C)NC(=O)[C@H](Cc2c[nH]c4ccccc24)NC(=O)[C@H](CCCCN)NC(=O)[C@H](CCC(=O)O)NC(=O)[C@H]([C@@H](C)O)NC(=O)[C@H](CCCNC(=N)N)NC(=O)[C@H](CO)NC3=O)NC(=O)[C@H](CCCCN)NC(=O)[C@H](CC(=O)O)NC(=O)[C@H](CC(N)=O)NC(=O)[C@H](CC(=O)O)NC(=O)[C@@H]2CCCN2C1=O` [compound 788] (H-DCLGAMRKCIPDNDKCCRPNLVCSRTEKWCKYVF-NH2; disulfide 2-17, 9-23, 16-30), for which the IC50 is greater than 5 µM on hNav1.7, 29.7 µM on hNav1.5 and greater than 5 µM at hNav1.3.
As for `CC[C@H](C)[C@@H]1NC(=O)[C@@H]2CSSC[C@@H]3NC(=O)[C@H](C(C)C)NC(=O)[C@H](CC(C)C)NC(=O)[C@H](CC(N)=O)NC(=O)[C@@H]4CCCN4C(=O)[C@H](CCCNC(=N)N)NC(=O)[C@H](CSSC[C@H](NC(=O)[C@@H](N)CC(=O)O)C(=O)N[C@@H](CC(C)C)C(=O)NCC(=O)N[C@@H](C)C(=O)N[C@@H](CCSC)C(=O)N[C@@H](CCCNC(=N)N)C(=O)N[C@@H](CCCCN)C(=O)N2)NC(=O)[C@H](CSSC[C@@H](C(=O)N[C@@H](CCC(=O)O)C(=O)N[C@@H](Cc2ccc(O)cc2)C(=O)N[C@H](C(=O)N[C@@H](Cc2ccccc2)C(N)=O)C(C)C)NC(=O)[C@H](Cc2c[nH]c4ccccc24)NC(=O)[C@H](CCCCN)NC(=O)[C@H](Cc2c[nH]cn2)NC(=O)[C@H]([C@@H](C)O)NC(=O)[C@H](CCCNC(=N)N)NC(=O)[C@H](CO)NC3=O)NC(=O)[C@H](CCCCN)NC(=O)[C@H](CC(=O)O)NC(=O)[C@H](CC(N)=O)NC(=O)[C@H](CC(=O)O)NC(=O)[C@@H]2CCCN2C1=O` [compound 789] (H-DCLGAMRKCIPDNDKCCRPNLVCSRTHKWCEYVF-NH2; disulfide 2-17, 9-23, 16-30), the IC50 was greater than 5 µM at hNav1.7, 31.8 µM on hNav1.5 and greater than 5 µM on hNav1.3.
Take `CC[C@H](C)[C@@H]1NC(=O)[C@@H]2CSSC[C@@H]3NC(=O)[C@H](C(C)C)NC(=O)[C@H](CC(C)C)NC(=O)[C@H](CC(N)=O)NC(=O)[C@@H]4CCCN4C(=O)[C@H](CCCNC(=N)N)NC(=O)[C@H](CSSC[C@H](NC(=O)[C@@H](N)CC(=O)O)C(=O)N[C@@H](CC(C)C)C(=O)NCC(=O)N[C@@H](C)C(=O)N[C@@H](CCSC)C(=O)N[C@@H](CCCNC(=N)N)C(=O)N[C@@H](CCCCN)C(=O)N2)NC(=O)[C@H](CSSC[C@@H](C(=O)N[C@@H](CCCCN)C(=O)N[C@@H](Cc2ccc(O)cc2)C(=O)N[C@H](C(=O)N[C@@H](Cc2ccccc2)C(=O)N[C@@H](CCC(=O)O)C(N)=O)C(C)C)NC(=O)[C@H](Cc2c[nH]c4ccccc24)NC(=O)[C@H](CCCCN)NC(=O)[C@H](Cc2c[nH]cn2)NC(=O)[C@H]([C@@H](C)O)NC(=O)[C@H](CCCNC(=N)N)NC(=O)[C@H](CO)NC3=O)NC(=O)[C@H](CCCCN)NC(=O)[C@H](CC(=O)O)NC(=O)[C@H](CC(N)=O)NC(=O)[C@H](CC(=O)O)NC(=O)[C@@H]2CCCN2C1=O` [compound 790] (H-DCLGAMRKCIPDNDKCCRPNLVCSRTHKWCKYVFE-NH2; disulfide 2-17, 9-23, 16-30): the IC50 was greater than 5 µM on hNav1.7, 28.5 µM at hNav1.5 and greater than 5 µM on hNav1.3.
In the case of `C#CC[C@@H]1NC(=O)[C@H](CC(=O)O)NC(=O)[C@@H]2CCCN2C(=O)[C@H]([C@@H](C)CC)NC(=O)[C@@H]2CSSC[C@@H]3NC(=O)[C@H](C(C)C)NC(=O)[C@H](CC(C)C)NC(=O)[C@H](CC(N)=O)NC(=O)[C@@H]4CCCN4C(=O)[C@H](CCCNC(=N)N)NC(=O)[C@H](CSSC[C@H](NC(=O)[C@@H](N)CC(=O)O)C(=O)N[C@@H](CC(C)C)C(=O)NCC(=O)N[C@@H](C)C(=O)N[C@@H](Cc4ccccc4)C(=O)N[C@@H](CCCNC(=N)N)C(=O)N[C@@H](CCCCN)C(=O)N2)NC(=O)[C@H](CSSC[C@@H](C(=O)N[C@@H](CCCCN)C(=O)N[C@@H](Cc2ccc(O)cc2)C(=O)N[C@H](C(=O)N[C@@H](Cc2ccccc2)C(N)=O)C(C)C)NC(=O)[C@H](Cc2c[nH]c4ccccc24)NC(=O)[C@H](CCCCN)NC(=O)[C@H](Cc2c[nH]cn2)NC(=O)[C@H]([C@@H](C)O)NC(=O)[C@H](CCCNC(=N)N)NC(=O)[C@H](CO)NC3=O)NC(=O)[C@H](CCCCN)NC(=O)[C@H](CC(=O)O)NC1=O` [compound 793] (H-DCLGAFRKCIPD[Pra]DKCCRPNLVCSRTHKWCKYVF-NH2; disulfide 2-17, 9-23, 16-30), the IC50 amounted to 0.53 µM at hNav1.7, 28.6 µM on hNav1.5 and 0.47 µM on hNav1.3.
The matching figures for `C#CC[C@H](NC(C)=O)C(=O)NCCCC[C@@H]1NC(=O)[C@H](CC(=O)O)NC(=O)[C@@H]2CCCN2C(=O)[C@H]([C@@H](C)CC)NC(=O)[C@@H]2CSSC[C@@H]3NC(=O)[C@H](C(C)C)NC(=O)[C@H](CC(C)C)NC(=O)[C@H](CC(N)=O)NC(=O)[C@@H]4CCCN4C(=O)[C@H](CCCNC(=N)N)NC(=O)[C@H](CSSC[C@H](NC(=O)[C@@H](N)CC(=O)O)C(=O)N[C@@H](CC(C)C)C(=O)NCC(=O)N[C@@H](C)C(=O)N[C@@H](Cc4ccccc4)C(=O)N[C@@H](CCCNC(=N)N)C(=O)N[C@@H](CCCCN)C(=O)N2)NC(=O)[C@H](CSSC[C@@H](C(=O)N[C@@H](CCCCN)C(=O)N[C@@H](Cc2ccc(O)cc2)C(=O)N[C@H](C(=O)N[C@@H](Cc2ccccc2)C(N)=O)C(C)C)NC(=O)[C@H](Cc2c[nH]c4ccccc24)NC(=O)[C@H](CCCCN)NC(=O)[C@H](Cc2c[nH]cn2)NC(=O)[C@H]([C@@H](C)O)NC(=O)[C@H](CCCNC(=N)N)NC(=O)[C@H](CO)NC3=O)NC(=O)[C@H](CCCCN)NC(=O)[C@H](CC(=O)O)NC1=O` [compound 794] (H-DCLGAFRKCIPDK([Pra-Ac])DKCCRPNLVCSRTHKWCKYVF-NH2; disulfide 2-17, 9-23, 16-30): 0.89 µM, 37.8 µM and 0.7 µM.
